Assay results as given in the NIST ThermoML archive (doi:10.1016/j.fluid.2011.03.012).
± gives the expanded uncertainty stated by the source.

Tests used:
[1] = Molar enthalpy of transition or fusion; conditions: Crystal; DSC
[2] = Crystal; DTA

- Molar enthalpy of transition or fusion [1]: 10.5 ± 0.287 kcal/mol
- Normal melting temperature [2]: 263.6 ± 1.4 °C
Structure (SMILES): Cc1cnc(NC(=O)C2=C(O)c3ccccc3S(=O)(=O)N2C)s1 [meloxicam]
